According to patent US9216957B2, “Androgen receptor antagonists and uses thereof” (SUZHOU KINTOR PHARMACEUTICALS, INC., priority 2011, dated 2015):

Tested on: Prostate-specific antigen (PSA) production in LNCaP cells
Experiment: PSA Assay (inhibition of PSA production in prostate cancer cells, ELISA)
Format: cell-based, human
Settings: Homo sapiens, LNCaP, 72 h, read-out: LNCAP IC50 (uM), inhibition of PSA production, LNCaP cells, R1881 1 ng/ml, three days, seven point assay
Experimental: PSA Assay (Inhibition Test of the Compound of the Present Invention on Prostate-Specific Antigen (PSA) Production in Various Prostate Cancer Cells).
Androgen dependent LNCaP cells were purchased from the American Type Culture Collection (ATCC, Manassas, Va.). These cells were grown in RPMI 1640 medium supplemented with 10% fetal bovine serum (FBS), 100 U/mL penicillin, 100 μg/mL streptomycin, and 0.25 μg/mL amphotericin B. The cells were maintained at 37° C. and 5% CO2. LNCaP cells between passage 20 and 35 were used for experiments. LNCaP is a hormone sensitive cell line. For the PSA assay, human prostate cancer cells LNCaP were seeded in a 96-well plate at a concentration of 5000 cells/100 μl/well. On the following day, Methyltrienolone (R1881, AR agonist) (final concentration 1 ng/ml), test compounds or bicalutamide (Casodex®, AstraZeneca) (final concentration 0.005 to 20 μM) were added. Three days after the addition, the concentration of PSA in the supernatant of the culture solution was measured by ELISA. ELISAs for human PSA in culture medium were performed using the ultra-sensitive assay procedure and reagents in the Active™ PSA assay kit (Diagnostic Systems Laboratories Inc., Webster, Tex.). Culture medium and standards (200 μl/well) were incubated in antibody-coated plates for 2 h at room temperature on a Titer plate shaker at 500-600 rpm. Wells were then washed five times. The HRP conjugate was diluted 1:20 with assay buffer, and 100 μl was added to all wells. The plates were incubated for 30 min at room temperature on the shaker and washed as before, and 100 μl TMB (3,3′,5,5′-tetramethylbenzidine, 0.4 g/l) was added. The plates were incubated for 10 min on the shaker, and the reaction was terminated with 100 μl stop solution. The plates were read using a plate reader at 450 nm with a 650 nm reference filter. PSA levels were normalized for differences in growth of LNCaP cells following various treatments as determined by the MTS assay. IC50 of PSA was calculated based on a seven point assay (concentrations of tested compound) and expressed as micromolar (uM).

## N#Cc1ccc(N2C(=O)C3(CCC3)N(c3ccc(CCCc4nccs4)nc3)C2=S)c(F)c1C(F)(F)F [Example 68, 3-fluoro-4-(8-oxo-5-(6-(3-(thiazol-2-yl)propyl)pyridin-3-yl)-6-thioxo-5,7-diazaspiro[3.4]octan-7-yl)-2-(trifluoromethyl)benzonitrile]
  IC50: 0.61 µM

## CNC(=O)COCc1ccc(N2C(=S)N(c3ccc(C#N)c(C(F)(F)F)c3F)C(=O)C2(C)C)cc1 [Example 17, 2-((4-(3-(4-cyano-2-fluoro-3-(trifluoromethyl)phenyl)-5,5-dimethyl-4-oxo-2-thioxoimidazolidin-1-yl)benzyl)oxy)-N-methylacetamide]
  IC50: 0.53 µM

## CNC(=O)CCCc1ccc(N2C(=S)N(c3ccc(C#N)c(C(F)(F)F)c3F)C(=O)C2(C)C)cc1F [Example 44, 4-{4-[3-(4-Cyano-2-fluoro-3-trifluoromethyl-phenyl)-5,5-dimethyl-4-oxo-2-thioxo-imidazolidin-1-yl]-2-fluoro-phenyl}-N-methyl-butyramide]
  IC50: 0.11 µM

## CN(C)C(=O)CCCc1ccc(N2C(=S)N(c3ccc(C#N)c(Cl)c3F)C(=O)C2(C)C)cc1 [Example 14, 4-{4-[3-(3-Chloro-4-cyano-2-fluoro-phenyl)-5,5-dimethyl-4-oxo-2-thioxo-imidazolidin-1-yl]-phenyl}-N,N-dimethyl-butyramide]
  IC50: 0.69 µM

## CC1(C)C(=O)N(c2ccc(C#N)c(C(F)(F)F)c2F)C(=S)N1c1ccc(CCCc2ncco2)c(F)c1 [Example 49, 3-Fluoro-4-{3-[3-fluoro-4-(3-oxazol-2-yl-propyl)-phenyl]-4,4-dimethyl-5-oxo-2-thioxo-imidazolidin-1-yl}-2-trifluoromethyl-benzonitrile]
  IC50: 0.49 µM

## COc1c(C#N)ccc(N2C(=O)C(C)(C)N(c3ccc(CCCC#N)c(F)c3)C2=S)c1F [Example 30, 4-(3-(4-(3-cyanopropyl)-3-fluorophenyl)-4,4-dimethyl-5-oxo-2-thioxoimidazolidin-1-yl)-3-fluoro-2-methoxybenzonitrile]
  IC50: 0.29 µM

## CN(C)C(=O)CCCc1ccc(N2C(=S)N(c3ccc(C#N)c(C(F)(F)F)c3F)C(=O)C2(C)C)cc1 [Example 12, 4-{4-[3-(4-Cyano-2-fluoro-3-trifluoromethyl-phenyl)-5,5-dimethyl-4-oxo-2-thioxo-imidazolidin-1-yl]-phenyl}-N,N-dimethyl-butyramide]
  IC50: 0.61 µM

## CNC(=O)C(C)(C)CCc1ccc(N2C(=S)N(c3ccc(C#N)c(C(F)(F)F)c3F)C(=O)C23CCC3)cc1 [Example 25, 4-{4-[7-(4-Cyano-2-fluoro-3-trifluoromethyl-phenyl)-8-oxo-6-thioxo-5,7-diaza-spiro[3.4]oct-5-yl]-phenyl}-2,2,N-trimethyl-butyramide]
  IC50: 0.82 µM

## CC1(C)C(=O)N(c2ccc(C#N)c(C(F)(F)F)c2F)C(=S)N1c1ccc(CCCC(N)=O)cc1 [Example 8, 4-(4-(3-(4-cyano-2-fluoro-3-(trifluoromethyl)phenyl)-5,5-dimethyl-4-oxo-2-thioxoimidazolidin-1-yl)phenyl)butanamide]
  IC50: 0.43 µM

## CC1(C)C(=O)N(c2ccc(C#N)c(C(F)(F)F)c2F)C(=S)N1c1ccc(CCCC(=O)N2CCC(O)CC2)c(F)c1 [Example 51, 3-Fluoro-4-(3-{3-fluoro-4-[4-(4-hydroxy-piperidin-1-yl)-4-oxo-butyl]-phenyl}-4,4-dimethyl-5-oxo-2-thioxo-imidazolidin-1-yl)-2-trifluoromethyl-benzonitrile]
  IC50: 0.39 µM

## CNC(=O)CCCc1ccc(N2C(=S)N(c3ccc(C#N)c(C(F)(F)F)c3F)C(=O)C23CCC3)cc1 [Example 10, 4-(4-(7-(4-cyano-2-fluoro-3-(trifluoromethyl)phenyl)-8-oxo-6-thioxo-5,7-diazaspiro[3.4]octan-5-yl)phenyl)-N-methylbutanamide]
  IC50: 0.42 µM

## CC1(C)C(=O)N(c2ccc(C#N)c(C(F)(F)F)c2F)C(=S)N1c1ccc(CCCC#N)c(F)c1 [Example 28, 4-(3-(4-(3-cyanopropyl)-3-fluorophenyl)-4,4-dimethyl-5-oxo-2-thioxoimidazolidin-1-yl)-3-fluoro-2-(trifluoromethyl)benzonitrile]
  IC50: 0.11 µM

## CC1(C)C(=O)N(c2ccc(C#N)c(Cl)c2F)C(=S)N1c1ccc(CCCc2ncc[nH]2)cc1 [Example 20, 2-Chloro-3-fluoro-4-(3-{4-[3-(1H-imidazol-2-yl)-propyl]-phenyl}-4,4-dimethyl-5-oxo-2-thioxo-imidazolidin-1-yl)-benzonitrile]
  IC50: 2.14 µM

## CC1(C)C(=O)N(c2ccc(C#N)c(C(F)(F)F)c2F)C(=S)N1c1ccc(CCCc2nccs2)nc1 [Example 67, 4-(4,4-dimethyl-5-oxo-3-(6-(3-(thiazol-2-yl)propyl)pyridin-3-yl)-2-thioxoimidazolidin-1-yl)-3-fluoro-2-(trifluoromethyl)benzonitrile]
  IC50: 0.27 µM
